Measured values taken from patent publication US7816522B2, “Triazolone derivatives” (Eisai Co., Ltd., priority 2006, dated 2010).

target: T1, human clotting factor VIIa (Homo sapiens, UniProt P08709); assay: Inhibitory activity against clotting factor VIIa (chromogenic substrate Spectrozyme FVIIa, TF/Factor VIIa enzyme solution); assay type: biochemical; conditions: human Factor VIIa 5 nmol/L with human TF 10 nmol/L, room temperature 40 minutes, 405 nm
T1 construct: a human clotting factor VIIa (hereinafter, “Factor VIIa”) purified sample; purchased Enzyme Research Laboratories HFVIIa
T1 sequence (P08709 213-466 limits assumed): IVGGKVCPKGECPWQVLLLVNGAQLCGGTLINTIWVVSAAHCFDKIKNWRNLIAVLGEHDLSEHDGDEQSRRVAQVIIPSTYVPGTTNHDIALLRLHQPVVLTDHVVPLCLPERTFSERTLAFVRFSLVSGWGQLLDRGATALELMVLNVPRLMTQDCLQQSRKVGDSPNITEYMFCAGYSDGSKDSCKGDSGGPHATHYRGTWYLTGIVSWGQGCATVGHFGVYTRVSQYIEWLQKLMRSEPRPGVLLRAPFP
T1 sequence (P08709 61-212 limits assumed): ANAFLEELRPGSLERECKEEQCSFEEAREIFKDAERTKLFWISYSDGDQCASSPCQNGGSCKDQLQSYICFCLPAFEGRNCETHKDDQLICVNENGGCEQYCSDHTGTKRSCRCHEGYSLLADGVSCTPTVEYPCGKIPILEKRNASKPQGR
T1 sequence (P13726 33-295 partner): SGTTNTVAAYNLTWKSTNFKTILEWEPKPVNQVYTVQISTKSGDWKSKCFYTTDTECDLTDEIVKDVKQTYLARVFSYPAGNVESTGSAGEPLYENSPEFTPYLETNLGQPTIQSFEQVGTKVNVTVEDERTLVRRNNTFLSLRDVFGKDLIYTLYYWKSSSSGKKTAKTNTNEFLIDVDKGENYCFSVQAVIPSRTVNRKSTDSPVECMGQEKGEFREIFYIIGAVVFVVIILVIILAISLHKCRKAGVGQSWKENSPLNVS
Summary of the method: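 Human Factor VIIa (5 nmol/L) with human TF (10 nmol/L) in Tris-BSA buffer pH 7.4 containing 15 mmol/L CaCl2 and cephalin, with Spectrozyme FVIIa substrate. Reaction 40 min at room temperature; 4-nitroanilide read at 405 nm. IC50 by non-linear regression over 100 μmol/L–0.1 nmol/L.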

COc1ccc(C(Nc2ccc(C(=N)N)cc2)c2nn(-c3ccccc3C(N)=O)c(=O)[nH]2)cc1OC (racemic) [Example 110, (R) and (S)-2-{3-[(4-carbamimidoylphenylamino)-(3,4-dimethoxyphenyl)methyl]-5-oxo-4,5-dihydro-1H-[1,2,4]triazol-1-yl}benzamide acetate] and COc1ccc(C(Nc2ccc(C(=N)N)cc2)c2nn(-c3cccnn3)c(=O)[nH]2)cc1OC (racemic) [Example 149, (R) and (S)-4-{[(3,4-dimethoxyphenyl)-(5-oxo-1-pyridazin-3-yl-4,5-dihydro-1H-[1,2,4]triazol-3-yl)methyl]amino}benzamidine acetate] are within 1.5-fold of each other in IC50: 6.6 nM for the first, 9.2 nM for the second.

COc1cc(F)c(C(Nc2ccc(C(=N)N)cc2)c2nn(-c3ncccn3)c(=O)[nH]2)cc1OC (racemic) [Example 111, 4-{[(R) and (S)-(2-fluoro-4,5-dimethoxyphenyl)-(5-oxo-1-pyrimidin-2-yl-4,5-dihydro-1H-[1,2,4]triazol-3-yl)methyl]amino}benzamidine acetate] and CCOc1cc(C(Nc2ccc(C(=N)N)cc2)c2nn(-c3ncccn3)c(=O)[nH]2)c(F)cc1OC (racemic) [Example 115, (R) and (S)-4-{[(5-ethoxy-2-fluoro-4-methoxyphenyl)-(5-oxo-1-pyrimidin-2-yl-4,5-dihydro-1H-[1,2,4]triazol-3-yl)methyl]amino}benzamidine acetate] are within 1.5-fold of each other in IC50: 11.3 nM for the first, 11.5 nM for the second.

First: COc1cc(C(Nc2ccc(C(=N)N)cc2)c2nn(-c3ncccn3)c(=O)[nH]2)cc(F)c1OC (racemic) [Example 116, (R) and (S)-4-{[(3-fluoro-4,5-dimethoxyphenyl)-(5-oxo-1-pyrimidin-2-yl-4,5-dihydro-1H-[1,2,4]triazol-3-yl)methyl]amino}benzamidine acetate]
Second: COCCc1cc(C(Nc2ccc(C(=N)N)cc2)c2nn(-c3ncccn3)c(=O)[nH]2)cc(OC)c1OC (racemic) [Example 129, (R) and (S)-4-({[3,4-dimethoxy-5-(2-methoxyethyl)-phenyl]-(5-oxo-1-pyrimidin-2-yl-4,5-dihydro-1H-[1,2,4]triazol-3-yl)methyl}amino)benzamidine acetate]
The IC50 of the first is 1.6-fold higher: 11.9 nM for the first, 7.5 nM for the second. The second is the more potent here.

First: COc1ccc(C(Nc2ccc(C(=N)N)cc2)c2nn(-c3ncccn3)c(=O)[nH]2)cc1OCCF (racemic) [Example 117, (R) and (S)-4-({[3-(2-fluoroethoxy)-4-methoxyphenyl]-(5-oxo-1-pyrimidin-2-yl-4,5-dihydro-1H-[1,2,4]triazol-3-yl)methyl}amino)benzamidine acetate]
Second: C=CCOc1cc(C(Nc2ccc(C(=N)N)cc2)c2nn(-c3ncccn3)c(=O)[nH]2)ccc1OC (racemic) [Example 118, (R) and (S)-4-{[(3-allyloxy-4-methoxyphenyl)-(5-oxo-1-pyrimidin-2-yl-4,5-dihydro-1H-[1,2,4]triazol-3-yl)methyl]amino}benzamidine acetate]
The IC50 of the first is 3.1-fold higher: 22.4 nM for the first, 7.3 nM for the second.

COc1cc(F)c(C(Nc2ccc(C(=N)N)cc2)c2nn(-c3cccnn3)c(=O)[nH]2)cc1OC (racemic) [Example 119, (R) and (S)-4-{[(2-fluoro-4,5-dimethoxyphenyl)-(5-oxo-1-pyridazin-3-yl-4,5-dihydro-1H-[1,2,4]triazol-3-yl)methyl]amino}benzamidine acetate] and COc1cc(OC)c(F)c(C(Nc2ccc(C(=N)N)cc2)c2nn(-c3cccnn3)c(=O)[nH]2)c1 (racemic) [Example 145, (R) and (S)-4-{[(2-fluoro-3,5-dimethoxyphenyl)-(5-oxo-1-pyridazin-3-yl-4,5-dihydro-1H-[1,2,4]triazol-3-yl)methyl]amino}benzamidine acetate] are within 1.5-fold of each other in IC50: 7 nM for the first, 8.7 nM for the second.

CCOc1cc(C(Nc2ccc(C(=N)N)cc2)c2nn(-c3cccnn3)c(=O)[nH]2)ccc1OC (racemic) [Example 121, (R) and (S)-4-{[(3-ethoxy-4-methoxyphenyl)-(5-oxo-1-pyridazin-3-yl-4,5-dihydro-1H-[1,2,4]triazol-3-yl)methyl]amino}benzamidine acetate] and COc1cc(C(Nc2ccc(C(=N)N)cc2)c2nn(-c3cccnn3)c(=O)[nH]2)ccc1OCC#N (racemic) [Example 144, (R) and (S)-4-{[(4-cyanomethoxy-3-methoxyphenyl)-(5-oxo-1-pyridazin-3-yl-4,5-dihydro-1H-[1,2,4]triazol-3-yl)methyl]amino}benzamidine acetate] are within 1.5-fold of each other in IC50: 6.8 nM for the first, 7.7 nM for the second.

CCOc1cc(C(Nc2ccc(C(=N)N)cc2)c2nn(-c3ccccc3C(=O)O)c(=O)[nH]2)c(F)cc1OC (racemic) [Example 122, (R) and (S)-2-{3[(4-carbamimidoylphenylamino)-(5-ethoxy-2-fluoro-4-methoxyphenyl)methyl]-5-oxo-4,5-dihydro-[1,2,4]triazol-1-yl}benzoic acid acetate] and CCOc1cc(C(Nc2ccc(C(=N)N)cc2)c2nn(-c3ncccc3F)c(=O)[nH]2)ccc1OC (racemic) [Example 132, (R) and (S)-4-({(3-ethoxy-4-methoxyphenyl)-[1-(3-fluoro-pyridin-2-yl)-5-oxo-4,5-dihydro-1H-[1,2,4]triazol-3-yl]methyl}amino}benzamidine acetate] are within 1.5-fold of each other in IC50: 2 nM for the first, 2.4 nM for the second.

COc1cc(C(Nc2ccc(C(=N)N)cc2)c2nn(-c3ncccc3F)c(=O)[nH]2)cc2c1OCC2 (racemic) [Example 123, (R) and (S)-4-({[1-(3-fluoropyridin-2-yl)-5-oxo-4,5-dihydro-1H-[1,2,4]triazol-3-yl]-(7-methoxy-2,3-dihydrobenzofuran-5-yl)methyl}amino)benzamidine acetate] and COc1cc(C(Nc2ccc(C(=N)N)cc2)c2nn(-c3ncccc3F)c(=O)[nH]2)cc2c1OCOC2 (racemic) [Example 133, (R) and (S)-4-({[1-(3-fluoropyridin-2-yl)-5-oxo-4,5-dihydro-1H-[1,2,4]triazol-3-yl]-(8-methoxy-4H-benzo[1,3]dioxin-6-yl)methyl}amino)benzamidine acetate] are within 1.5-fold of each other in IC50: 4.6 nM for the first, 6.3 nM for the second.

COc1cc(C(Nc2ccc(C(=N)N)cc2)c2nn(-c3ncccn3)c(=O)[nH]2)cc2c1OCOCC2 (racemic) [Example 130, (R) and (S)-4-{[(4-methoxy-8,9-dihydro-5,7-dioxabenzocyclohepten-2-yl)-(5-oxo-1-pyrimidin-2-yl-4,5-dihydro-1H-[1,2,4]triazol-3-yl)methyl]amino}benzamidine acetate] and COc1cc(C(Nc2ccc(C(=N)N)cc2)c2nn(-c3cccnn3)c(=O)[nH]2)cc2c1OCOC2 (racemic) [Example 150, (R) and (S)-4-{[(8-methoxy-4H-benzo[1,3]dioxin-6-yl)-(5-oxo-1-pyridazin-3-yl-4,5-dihydro-1H[1,2,4]triazol-3-yl)methyl]amino}benzamidine acetate] are within 1.5-fold of each other in IC50: 10.6 nM for the first, 9 nM for the second.

COc1cc(C(Nc2ccc(C(=N)N)cc2)c2nn(-c3ncccn3)c(=O)[nH]2)cc(CC#N)c1F (racemic) [Example 131, (R) and (S)-4-{[(3-cyanomethyl-4-fluoro-5-methoxyphenyl)-(5-oxo-1-pyrimidin-2-yl-4,5-dihydro-1H-[1,2,4]triazol-3-yl)methyl]amino}benzamidine acetate] and COc1cc(C(Nc2ccc(C(=N)N)cc2)c2nn(-c3cccnn3)c(=O)[nH]2)cc(CC#N)c1F (racemic) [Example 146, (R) and (S)-4-{[(3-cyanomethyl-4-fluoro-5-methoxyphenyl)-(5-oxo-1-pyridazin-3-yl-4,5-dihydro-1H-[1,2,4]triazol-3-yl)methyl]amino}benzamidine acetate] are within 1.5-fold of each other in IC50: 5.6 nM for the first, 8.1 nM for the second.

Going from COc1cc(OCCF)c(F)c(C(Nc2ccc(C(=N)N)cc2)c2nn(-c3ncccc3N)c(=O)[nH]2)c1 (racemic) [Example 136, (R) and (S)-4-({[1-(3-aminopyridin-2-yl)-5-oxo-4,5-dihydro-1H-[1,2,4]triazol-3-yl]-[2-fluoro-3-(2-fluoroethoxy)-5-methoxyphenyl]methyl}amino)benzamidine acetate] to COc1cc(OC)c(F)c(C(Nc2ccc(C(=N)N)cc2)c2nn(-c3ncccc3N)c(=O)[nH]2)c1 (racemic) [Example 137, (R) and (S)-4-({[1-(3-aminopyridin-2-yl)-5-oxo-4,5-dihydro-1H-[1,2,4]triazol-3-yl]-(2-fluoro-3,5-dimethoxyphenyl)methyl}amino)benzamidine acetate], the IC50 rises from 5.1 nM to 10.3 nM (2-fold).

Compared with COc1cc(F)c(C(Nc2ccc(C(=N)N)c(F)c2)c2nn(-c3ncccn3)c(=O)[nH]2)cc1OC (racemic) [Example 143, (R) and (S)-2-fluoro-4-{[(2-fluoro-4,5-dimethoxyphenyl)-(5-oxo-1-pyrimidin-2-yl-4,5-dihydro-1H-[1,2,4]triazol-3-yl)methyl]amino}benzamidine acetate], COc1cc(OCCF)c(F)c(C(Nc2ccc(C(=N)N)cc2)c2nn(-c3cccnn3)c(=O)[nH]2)c1 (racemic) [Example 151, (R) and (S)-4-{[(2-fluoro-3-(2-fluoroethoxy)-5-methoxyphenyl)-(5-oxo-1-pyridazin-3-yl-4,5-dihydro-1H-[1,2,4]triazol-3-yl)methyl]amino}benzamidine acetate] is 4.3-fold lower in IC50: 23 nM for the first, 5.4 nM for the second.

First: COc1cc(OCC#N)c(F)c(C(Nc2ccc(C(=N)N)cc2)c2nn(-c3cccnn3)c(=O)[nH]2)c1 (racemic) [Example 148, (R) and (S)-{[(3-cyanomethoxy-2-fluoro-5-methoxyphenyl)-(5-oxo-1-pyridazin-3-yl-4,5-dihydro-1H-[1,2,4]triazol-3-yl)methyl]amino}benzamidine acetate]
Second: COC(=O)c1sccc1-n1nc(C(Nc2ccc(C(=N)N)cc2)c2cc3c(c(OC)c2)OCOC3)[nH]c1=O (racemic) [Example 152, (R) and (S)-3-{3-[(4-carbamimidoylphenylamino)-(8-methoxy-4H-benzo[1,3]dioxin-6-yl)methyl]-5-oxo-4,5-dihydro[1,2,4]triazol-1-yl}thiophene-2-carboxylic acid methyl ester acetate]
The IC50 of the first is 7.2-fold higher: 8.7 nM for the first, 1.2 nM for the second.
